# Source: ChEMBL document CHEMBL3612056, “Mechanism studies on anti-HepG2 cell proliferation of phenanthroline derivatives as G-quadruplex DNA stabilizers” (Bioorg Med Chem Lett, 2015)
# Active and inactive are the calls of the source. The rule behind the calls is not given here.
# What was measured:
# HepG2 [1] = assay: Reduction in c-Myc gene expression in human HepG2 cells at 2 to 16 uM incubated for 2 days by RT-PCR method; type: functional, cell-based
# HepG2 [2] = assay: Induction of apoptosis in human HepG2 cells assessed as necrotic cells levels at 12 uM incubated for 2 days by Annexin-V-FITC and propidium iodide staining based flow cytometry (reference value: 1.4%); type: functional
# HepG2 [3] = assay: Induction of apoptosis in human HepG2 cells assessed as late apoptotic cells levels at 12 uM incubated for 3 days by Annexin-V-FITC and propidium iodide staining based flow cytometry (reference value: 3.9%); type: functional
# HepG2 [4] = assay: Induction of apoptosis in human HepG2 cells assessed as viable cells levels at 8 uM incubated for 3 days by Annexin-V-FITC and propidium iodide staining based flow cytometry (reference value: 89.3%); type: functional
# HepG2 [5] = assay: Induction of apoptosis in human HepG2 cells assessed as viable cells levels at 12 uM incubated for 3 days by Annexin-V-FITC and propidium iodide staining based flow cytometry (reference value: 89.3%); type: functional
# HepG2 [6] = assay: Induction of cell cycle arrest in human HepG2 cells assessed as reduction in accumulation at S phase incubated for 2 days by propidium iodide staining based flow cytometry method; type: functional
# HepG2 [7] = assay: Induction of apoptosis in human HepG2 cells assessed as early apoptotic cells levels at 8 uM incubated for 2 days by Annexin-V-FITC and propidium iodide staining based flow cytometry (reference value: 0.3%); type: functional
# HepG2 [8] = assay: Induction of apoptosis in human HepG2 cells assessed as necrotic cells levels at 12 uM incubated for 3 days by Annexin-V-FITC and propidium iodide staining based flow cytometry (reference value: 3.8%); type: functional
# HepG2 [9] = assay: Induction of apoptosis in human HepG2 cells assessed as viable cells levels at 12 uM incubated for 2 days by Annexin-V-FITC and propidium iodide staining based flow cytometry (reference value: 97.9%); type: functional
# HepG2 [10] = assay: Induction of apoptosis in human HepG2 cells assessed as early apoptotic cells levels at 8 uM incubated for 3 days by Annexin-V-FITC and propidium iodide staining based flow cytometry (reference value: 2.9%); type: functional
# HepG2 [11] = assay: Induction of apoptosis in human HepG2 cells by Annexin-V-FITC and propidium iodide staining based flow cytometry; type: functional, cell-based
# HepG2 [12] = assay: Induction of apoptosis in human HepG2 cells assessed as necrotic cells levels at 8 uM incubated for 2 days by Annexin-V-FITC and propidium iodide staining based flow cytometry (reference value: 1.4%); type: functional
# HepG2 [13] = assay: Reduction in cyclin D1/CDK4 protein expression in human HepG2 cells incubated for 2 days by Western blot method; type: functional, cell-based
# HepG2 [14] = assay: Effect on TERT gene expression in human HepG2 cells at 2 to 16 uM incubated for 2 days by RT-PCR method; type: functional, cell-based
# HepG2 [15] = assay: Induction of apoptosis in human HepG2 cells assessed as early apoptotic cells levels at 12 uM incubated for 2 days by Annexin-V-FITC and propidium iodide staining based flow cytometry (reference value: 0.3%); type: functional
# MCF7 = assay: Cytotoxicity against human MCF7 cells assessed as reduction in cell viability incubated for 72 hrs by MTT assay; type: functional, cell-based; conditions: MCF7, 72 h
# HepG2 [16] = assay: Induction of cell cycle arrest in human HepG2 cells assessed as accumulation at S phase at 8 uM incubated for 2 days by propidium iodide staining based flow cytometry method (reference value: 27.05%); type: functional
# HepG2 [17] = assay: Induction of cell cycle arrest in human HepG2 cells assessed as increase in accumulation at G0/G1 phase incubated for 2 days by propidium iodide staining based flow cytometry method; type: functional
# HepG2 [18] = assay: Induction of apoptosis in human HepG2 cells assessed as early apoptotic cells levels at 12 uM incubated for 3 days by Annexin-V-FITC and propidium iodide staining based flow cytometry (reference value: 2.9%); type: functional
# DNA = assay: Stabilization of human telomere promoter G-quadruplex DNA (unknown origin); type: nucleic-acid assay
# HepG2 [19] = assay: Induction of apoptosis in human HepG2 cells assessed as necrotic cells levels at 8 uM incubated for 3 days by Annexin-V-FITC and propidium iodide staining based flow cytometry (reference value: 3.8%); type: functional
# HepG2 [20] = assay: Reduction in TERT protein expression in human HepG2 cells at 0.5 to 20 uM incubated for 2 days by Western blot method; type: functional, cell-based
# HepG2 [21] = assay: Inhibition of telomeric DNA elongation in human HepG2 cells at 0.5 uM incubated for 17 days by telomere restriction fragment length assay; type: functional, cell-based
# HeLa = assay: Cytotoxicity against human HeLa cells assessed as reduction in cell viability incubated for 72 hrs by MTT assay; type: functional, cell-based
# HepG2 [22] = assay: Increase in p53 protein expression in human HepG2 cells at 8 and 12 uM incubated for 2 days by Western blot method; type: functional, cell-based
# HepG2 [23] = assay: Induction of cell cycle arrest in human HepG2 cells assessed as reduction in accumulation at G2/M phase incubated for 2 days by propidium iodide staining based flow cytometry method; type: functional
# HepG2 [24] = assay: Reduction in c-Myc protein expression in human HepG2 cells at 0.5 to 20 uM incubated for 2 days by Western blot method; type: functional, cell-based
# HepG2 [25] = assay: Induction of apoptosis in human HepG2 cells assessed as late apoptotic cells levels at 8 uM incubated for 2 days by Annexin-V-FITC and propidium iodide staining based flow cytometry (reference value: 0.5%); type: functional
# HepG2 [26] = assay: Induction of apoptosis in human HepG2 cells assessed as late apoptotic cells levels at 12 uM incubated for 2 days by Annexin-V-FITC and propidium iodide staining based flow cytometry (reference value: 0.5%); type: functional
# HepG2 [27] = assay: Induction of apoptosis in human HepG2 cells assessed as late apoptotic cells levels at 8 uM incubated for 3 days by Annexin-V-FITC and propidium iodide staining based flow cytometry (reference value: 3.9%); type: functional
# [28] = Stabilization of c-myc promoter G-quadruplex DNA (unknown origin)
# HepG2 [29] = assay: Reduction in Sp1 protein expression in human HepG2 cells at 8 and 12 uM incubated for 2 days by Western blot method; type: functional, cell-based
# HepG2 [30] = assay: Induction of cell cycle arrest in human HepG2 cells assessed as accumulation at S phase at 4 uM incubated for 2 days by propidium iodide staining based flow cytometry method (reference value: 27.05%); type: functional
# HepG2 [31] = assay: Inhibition of cell proliferation of human HepG2 cells at 0.5 uM incubated for 12 days by long-term cell growth inhibition assay; type: functional, cell-based
# HepG2 [32] = assay: Induction of cell cycle arrest in human HepG2 cells assessed as accumulation at G0/G1 phase at 4 uM incubated for 2 days by propidium iodide staining based flow cytometry method (reference value: 51.56%); type: functional
# HepG2 [33] = assay: Induction of cell cycle arrest in human HepG2 cells assessed as accumulation at G2/M phase at 8 uM incubated for 2 days by propidium iodide staining based flow cytometry method (reference value: 21.39%); type: functional
# HepG2 [34] = assay: Induction of apoptosis in human HepG2 cells assessed as viable cells levels at 8 uM incubated for 2 days by Annexin-V-FITC and propidium iodide staining based flow cytometry (reference value: 97.9%); type: functional
# HepG2 [35] = assay: Induction of cell cycle arrest in human HepG2 cells assessed as accumulation at G0/G1 phase at 8 uM incubated for 2 days by propidium iodide staining based flow cytometry method (reference value: 51.56%); type: functional
# HepG2 [36] = assay: Induction of cell cycle arrest in human HepG2 cells assessed as accumulation at G2/M phase at 4 uM incubated for 2 days by propidium iodide staining based flow cytometry method (reference value: 21.39%); type: functional
# HepG2 [37] = assay: Cytotoxicity against human HepG2 cells assessed as reduction in cell viability incubated for 72 hrs by MTT assay; type: functional, cell-based; conditions: HepG2, 72 h
# HepG2 [38] = assay: Reduction in cyclin B1/CDK1 protein expression in human HepG2 cells incubated for 2 days by Western blot method; type: functional, cell-based
# HepG2 [39] = assay: Induction of cell cycle arrest in human HepG2 cells assessed as accumulation at G2/M phase at 4 uM incubated for 2 days by propidium iodide staining based flow cytometry method (reference value: 10.75%); type: functional
# HepG2 [40] = assay: Induction of cell cycle arrest in human HepG2 cells assessed as accumulation at G0/G1 phase at 4 uM incubated for 2 days by propidium iodide staining based flow cytometry method (reference value: 64.6%); type: functional
# HepG2 [41] = assay: Induction of cell cycle arrest in human HepG2 cells assessed as accumulation at S phase at 4 uM incubated for 2 days by propidium iodide staining based flow cytometry method (reference value: 24.65%); type: functional
# HepG2 [42] = assay: Induction of cell cycle arrest in human HepG2 cells assessed as accumulation at G0/G1 phase at 8 uM incubated for 2 days by propidium iodide staining based flow cytometry method (reference value: 64.6%); type: functional
# HepG2 [43] = assay: Induction of cell cycle arrest in human HepG2 cells assessed as accumulation at G2/M phase at 8 uM incubated for 2 days by propidium iodide staining based flow cytometry method (reference value: 10.75%); type: functional
# HepG2 [44] = assay: Reduction in TERT protein expression in human HepG2 cells at 2 to 12 uM incubated for 2 days by Western blot method; type: functional, cell-based
# HepG2 [45] = assay: Induction of cell cycle arrest in human HepG2 cells assessed as accumulation at S phase at 8 uM incubated for 2 days by propidium iodide staining based flow cytometry method (reference value: 24.65%); type: functional
# HepG2 [46] = assay: Reduction in c-Myc protein expression in human HepG2 cells at 2 to 12 uM incubated for 2 days by Western blot method; type: functional, cell-based
smiles,measurement,setting,value
O=C(Nc1ccc(OCCN2CCCC2)cc1)c1ccc2ccc3ccc(C(=O)Nc4ccc(OCCN5CCCC5)cc4)nc3c2n1,inhibition,HepG2 [1],Active
same,Activity,HepG2 [2],6%
same,Activity,HepG2 [3],10.7%
same,Activity,HepG2 [4],28.2%
same,Activity,HepG2 [5],14.4%
same,Activity,HepG2 [6],Dose-dependent effect
same,Activity,HepG2 [7],10.8%
same,Activity,HepG2 [8],1.1%
same,Activity,HepG2 [9],65.1%
same,Activity,HepG2 [10],46.6%
same,Activity,HepG2 [11],Dose-dependent effect
same,Activity,HepG2 [12],5.3%
same,inhibition,HepG2 [13],Dose-dependent effect
same,Activity,HepG2 [14],inactive
same,Activity,HepG2 [15],19.4%
same,IC50,MCF7,2000 nM
same,Activity,HepG2 [16],19.9%
same,Activity,HepG2 [17],Dose-dependent effect
same,Activity,HepG2 [18],73.9%
same,Activity,DNA,Active
same,Activity,HepG2 [19],5.2%
same,inhibition,HepG2 [20],Active
same,inhibition,HepG2 [21],inactive
same,IC50,HeLa,2100 nM
same,Activity,HepG2 [22],Active
same,Activity,HepG2 [23],Dose-dependent effect
same,inhibition,HepG2 [24],Active
same,Activity,HepG2 [25],5.4%
same,Activity,HepG2 [26],9.5%
same,Activity,HepG2 [27],20%
same,Activity,[28],Active
same,inhibition,HepG2 [29],Dose-dependent effect
same,Activity,HepG2 [30],25.69%
same,inhibition,HepG2 [31],Active
same,Activity,HepG2 [32],55.76%
same,Activity,HepG2 [33],15.13%
same,Activity,HepG2 [34],78.4%
same,Activity,HepG2 [35],64.97%
same,Activity,HepG2 [36],18.55%
same,IC50,HepG2 [37],500 nM
same,inhibition,HepG2 [38],Dose-dependent effect
O=C(CCN1CCCC1)Nc1cccc(NC(=O)c2ccc3ccc4ccc(C(=O)Nc5cccc(NC(=O)CCN6CCCC6)n5)nc4c3n2)n1,inhibition,HepG2 [1],Active
same,Activity,HepG2 [2],5.2%
same,Activity,HepG2 [3],18.7%
same,Activity,HepG2 [4],33.7%
same,Activity,HepG2 [5],31.6%
same,Activity,HepG2 [7],3.3%
same,Activity,HepG2 [8],10.2%
same,Activity,HepG2 [39],13.82%
same,Activity,HepG2 [40],59.87%
same,Activity,HepG2 [9],81.7%
same,Activity,HepG2 [10],39.6%
same,Activity,HepG2 [11],Dose-dependent effect
same,Activity,HepG2 [12],5%
same,inhibition,HepG2 [13],Dose-dependent effect
same,Activity,HepG2 [14],inactive
same,Activity,HepG2 [15],4.9%
same,IC50,MCF7,1570 nM
same,Activity,HepG2 [41],26.82%
same,Activity,HepG2 [42],42.26%
same,Activity,HepG2 [18],39.5%
same,Activity,DNA,Active
same,Activity,HepG2 [43],19.17%
same,Activity,HepG2 [19],9.3%
same,inhibition,HepG2 [21],inactive
same,IC50,HeLa,830 nM
same,inhibition,HepG2 [44],Active
same,Activity,HepG2 [22],Active
same,Activity,HepG2 [45],38.57%
same,Activity,HepG2 [25],7.5%
same,Activity,HepG2 [26],8.2%
same,inhibition,HepG2 [46],Active
same,Activity,HepG2 [27],17.4%
same,Activity,[28],Active
same,inhibition,HepG2 [29],Dose-dependent effect
same,inhibition,HepG2 [31],Active
same,Activity,HepG2 [34],84.2%
same,IC50,HepG2 [37],1260 nM
same,inhibition,HepG2 [38],Dose-dependent effect
